Measurements taken from patent publication US20260015358A1, “BICYCLIC DERIVATIVES, COMPOSITIONS AND USES THEREOF” (Danatlas Pharmaceuticals Co., Ltd., priority 2023, published 2026).

Assays:
[1] = biological target: T1, WRN [UniPro: Q14191 (WRN_HUMAN), N500-C946] (Homo sapiens (Human), UniProt Q14191); test: WRN unwinding assay (FORKF DNA, fluorescence); format: biochemical; settings: Table 14
[2] = biological target: T1, WRN [UniPro: Q14191 (WRN_HUMAN), N500-C946]; test: WRN ATPase assay (ADP-Glo); format: biochemical; settings: WRN enzymatic activity assay

T1 sequence (Q14191 500-946): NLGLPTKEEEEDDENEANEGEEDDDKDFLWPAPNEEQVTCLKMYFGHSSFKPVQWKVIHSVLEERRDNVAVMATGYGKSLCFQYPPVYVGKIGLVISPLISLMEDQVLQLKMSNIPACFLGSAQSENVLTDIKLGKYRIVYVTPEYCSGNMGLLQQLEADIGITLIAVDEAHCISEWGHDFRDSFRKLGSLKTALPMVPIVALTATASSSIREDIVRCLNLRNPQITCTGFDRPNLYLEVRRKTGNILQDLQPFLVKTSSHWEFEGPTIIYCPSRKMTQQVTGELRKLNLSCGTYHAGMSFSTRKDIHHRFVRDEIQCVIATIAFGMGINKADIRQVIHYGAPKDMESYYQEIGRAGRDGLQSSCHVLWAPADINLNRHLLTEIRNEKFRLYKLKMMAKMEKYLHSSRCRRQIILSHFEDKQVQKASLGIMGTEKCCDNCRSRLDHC

| Compound | IC50 [1] | IC50 [2] |
| --- | --- | --- |
| CCc1c(N2CCN(C(=O)c3cnn4cncc4c3O)CC2)c(=O)n2nc(C3=CCOCC3)nc2n1CC(=O)Nc1ccc(C(F)(F)F)cc1Cl [Example 201, N-(2-Chloro-4-(trifluoromethyl)phenyl)-2-(2-(3,6-dihydro-2H-pyran-4-yl)-5-ethyl-6-(4-(4-hydroxyimidazo[1,5-b]pyridazine-3-carbonyl)piperazin-1-yl)-7-oxo-[1,2,4]triazolo[1,5-a]pyrimidin-4(7H)-yl)acetamide] | < 100 nM | < 100 nM |
| CCc1c(N2CCN(C(=O)c3ncn4cccc4c3O)CC2)c(=O)n2nc(C3=CCOCC3)nc2n1CC(=O)Nc1ccc(C(F)(F)F)cc1Cl [Example 202, N-(2-Chloro-4-(trifluoromethyl)phenyl)-2-(2-(3,6-dihydro-2H-pyran-4-yl)-5-ethyl-6-(4-(4-hydroxypyrrolo[1,2-c]pyrimidine-3-carbonyl)piperazin-1-yl)-7-oxo-[1,2,4]triazolo[1,5-a]pyrimidin-4(7H)-yl)acetamide] | 100 to 1000 nM | 100 to 1000 nM |
| CCc1c(N2CCN(C(=O)c3ncc4ccn(C)c4c3O)CC2)c(=O)n2nc(C3=CCOCC3)nc2n1CC(=O)Nc1ccc(C(F)(F)F)cc1Cl [Example 203, N-(2-Chloro-4-(trifluoromethyl)phenyl)-2-(2-(3,6-dihydro-2H-pyran-4-yl)-5-ethyl-6-(4-(7-hydroxy-1-methyl-1H-pyrrolo[3,2-c]pyridine-6-carbonyl)piperazin-1-yl)-7-oxo-[1,2,4]triazolo[1,5-a]pyrimidin-4(7H)-yl)acetamide] | < 100 nM | < 100 nM |
| CCc1c(N2CCN(C(=O)c3ncc4ccccc4c3O)CC2)c(=O)n2nc(C3=CCOCC3)nc2n1CC(=O)Nc1ccc(C(F)(F)F)cc1Cl [Example 204, N-(2-Chloro-4-(trifluoromethyl)phenyl)-2-(2-(3,6-dihydro-2H-pyran-4-yl)-5-ethyl-6-(4-(4-hydroxyisoquinoline-3-carbonyl)piperazin-1-yl)-7-oxo-[1,2,4]triazolo[1,5-a]pyrimidin-4(7H)-yl)acetamide] | < 100 nM | < 100 nM |
| CCc1c(N2CCN(C(=O)c3ncc4c(ccn4C)c3O)CC2)c(=O)n2nc(C3=CCOCC3)nc2n1CC(=O)Nc1ccc(C(F)(F)F)cc1Cl [Example 205, N-(2-Chloro-4-(trifluoromethyl)phenyl)-2-(2-(3,6-dihydro-2H-pyran-4-yl)-5-ethyl-6-(4-(4-hydroxy-1-methyl-1H-pyrrolo[2,3-c]pyridine-5-carbonyl)piperazin-1-yl)-7-oxo-[1,2,4]triazolo[1,5-a]pyrimidin-4(7H)-yl)acetamide] | < 100 nM | < 100 nM |
| CCc1c(N2CCN(C(=O)c3cnn4ccnc4c3O)CC2)c(=O)n2nc(C3=CCOCC3)nc2n1CC(=O)Nc1ccc(C(F)(F)F)cc1Cl [Example 206, N-(2-Chloro-4-(trifluoromethyl)phenyl)-2-(2-(3,6-dihydro-2H-pyran-4-yl)-5-ethyl-6-(4-(8-hydroxyimidazo[1,2-b]pyridazine-7-carbonyl)piperazin-1-yl)-7-oxo-[1,2,4]triazolo[1,5-a]pyrimidin-4(7H)-yl)acetamide] | < 100 nM | < 100 nM |
| CCc1c(N2CCN(C(=O)CNc3ncccn3)CC2)c(=O)n2nc(C3=CCOCC3)nc2n1CC(=O)Nc1ccc(C(F)(F)F)cc1Cl [Example 207, N-(2-Chloro-4-(trifluoromethyl)phenyl)-2-(2-(3,6-dihydro-2H-pyran-4-yl)-5-ethyl-7-oxo-6-(4-(pyrimidin-2-ylglycyl)piperazin-1-yl)-[1,2,4]triazolo[1,5-a]pyrimidin-4(7H)-yl)acetamide] | 100 to 1000 nM | 100 to 1000 nM |
| CCc1c(N2CCN(C(=O)CNc3nc(=O)c4ccccc4[nH]3)CC2)c(=O)n2nc(C3=CCOCC3)nc2n1CC(=O)Nc1ccc(C(F)(F)F)cc1Cl [Example 208, N-(2-Chloro-4-(trifluoromethyl)phenyl)-2-(2-(3,6-dihydro-2H-pyran-4-yl)-5-ethyl-7-oxo-6-(4-((4-oxo-1,4-dihydroquinazolin-2-yl)glycyl)piperazin-1-yl)-[1,2,4]triazolo[1,5-a]pyrimidin-4(7H)-yl)acetamide] | < 100 nM | < 100 nM |
| [2H]C([2H])(NC(=O)c1cc(NC)ccc1F)C(=O)N1CCN(c2c(CC)n(CC(=O)Nc3ccc(C(F)(F)F)cc3F)c3nc(C4=CCOCC4)nn3c2=O)CC1 [Example 209, N-(2-(4-(2-(3,6-Dihydro-2H-pyran-4-yl)-5-ethyl-4-(2-((2-fluoro-4-(trifluoromethyl)phenyl)amino)-2-oxoethyl)-7-oxo-4,7-dihydro-[1,2,4]triazolo[1,5-a]pyrimidin-6-yl)piperazin-1-yl)-2-oxoethyl-1,1-d2)-2-fluoro-5-(methylamino)benzamide] | < 100 nM | < 100 nM |
| CCc1c(N2CCN(C(=O)CNC(=O)c3ncnc(C)c3O)CC2)c(=O)n2nc(C3=CCOCC3)nc2n1CC(=O)Nc1ccc(C(F)(F)F)cc1Cl [Example 210, N-(2-(4-(4-(2-((2-Chloro-4-(trifluoromethyl)phenyl)amino)-2-oxoethyl)-2-(3,6-dihydro-2H-pyran-4-yl)-5-ethyl-7-oxo-4,7-dihydro-[1,2,4]triazolo[1,5-a]pyrimidin-6-yl)piperazin-1-yl)-2-oxoethyl)-5-hydroxy-6-methylpyrimidine-4-carboxamide] | < 100 nM | < 100 nM |
| CCc1c(N2CCN(C(=O)CNC(=O)c3cccc(F)c3O)CC2)c(=O)n2nc(C3=CCOCC3)nc2n1CC(=O)Nc1ccc(C(F)(F)F)cc1Cl [Example 211, N-(2-(4-(4-(2-((2-Chloro-4-(trifluoromethyl)phenyl)amino)-2-oxoethyl)-2-(3,6-dihydro-2H-pyran-4-yl)-5-ethyl-7-oxo-4,7-dihydro-[1,2,4]triazolo[1,5-a]pyrimidin-6-yl)piperazin-1-yl)-2-oxoethyl)-3-fluoro-2-hydroxybenzamide] | < 100 nM | < 100 nM |
| CCc1c(N2CCN(C(=O)CNC(=O)c3cc(N(C)C)ccc3F)CC2)c(=O)n2nc(C3=CCOCC3)nc2n1CC(=O)Nc1ccc(C(F)(F)F)cc1Cl [Example 212, N-(2-(4-(4-(2-((2-Chloro-4-(trifluoromethyl)phenyl)amino)-2-oxoethyl)-2-(3,6-dihydro-2H-pyran-4-yl)-5-ethyl-7-oxo-4,7-dihydro-[1,2,4]triazolo[1,5-a]pyrimidin-6-yl)piperazin-1-yl)-2-oxoethyl)-5-(dimethylamino)-2-fluorobenzamide] | 100 to 1000 nM | 100 to 1000 nM |
| CCc1c(N2CCN(C(=O)CNC(=O)c3cc(NC)c(F)cc3F)CC2)c(=O)n2nc(C3=CCOCC3)nc2n1CC(=O)Nc1ccc(C(F)(F)F)cc1F [Example 213, N-(2-(4-(2-(3,6-Dihydro-2H-pyran-4-yl)-5-ethyl-4-(2-((2-fluoro-4-(trifluoromethyl)phenyl)amino)-2-oxoethyl)-7-oxo-4,7-dihydro-[1,2,4]triazolo[1,5-a]pyrimidin-6-yl)piperazin-1-yl)-2-oxoethyl)-2,4-difluoro-5-(methylamino)benzamide] | < 100 nM | < 100 nM |
| CCc1c(N2CCN(C(=O)CNC(=O)c3ccc(F)c(F)c3O)CC2)c(=O)n2nc(C3=CCOCC3)nc2n1CC(=O)Nc1ccc(C(F)(F)F)cc1F [Example 214, N-(2-(4-(2-(3,6-Dihydro-2H-pyran-4-yl)-5-ethyl-4-(2-((2-fluoro-4-(trifluoromethyl)phenyl)amino)-2-oxoethyl)-7-oxo-4,7-dihydro-[1,2,4]triazolo[1,5-a]pyrimidin-6-yl)piperazin-1-yl)-2-oxoethyl)-3,4-difluoro-2-hydroxybenzamide] | < 100 nM | < 100 nM |
| CCc1c(N2CCN(C(=O)CNC(=O)c3cc(NC)ccc3F)CC2)c(=O)n2nc(C3=CCOCC3)nc2n1CC(=O)Nc1ccc(C(F)(F)F)cc1F [Example 215, N-(2-(4-(2-(3,6-dihydro-2H-pyran-4-yl)-5-ethyl-4-(2-((2-fluoro-4-(trifluoromethyl)phenyl)amino)-2-oxoethyl)-7-oxo-4,7-dihydro-[1,2,4]triazolo[1,5-a]pyrimidin-6-yl)piperazin-1-yl)-2-oxoethyl)-2-fluoro-5-(methylamino)benzamide] | < 100 nM | < 100 nM |
| CCc1c(N2CCN(C(=O)CNC(=O)c3nccs3)CC2)c(=O)n2nc(C3=CCOCC3)nc2n1CC(=O)Nc1ccc(C(F)(F)F)cc1F [Example 216, N-(2-(4-(2-(3,6-Dihydro-2H-pyran-4-yl)-5-ethyl-4-(2-((2-fluoro-4-(trifluoromethyl)phenyl)amino)-2-oxoethyl)-7-oxo-4,7-dihydro-[1,2,4]triazolo[1,5-a]pyrimidin-6-yl)piperazin-1-yl)-2-oxoethyl)thiazole-2-carboxamide] | < 100 nM | < 100 nM |
| CCc1c(N2CCN(C(=O)CNC(=O)c3ncco3)CC2)c(=O)n2nc(C3=CCOCC3)nc2n1CC(=O)Nc1ccc(C(F)(F)F)cc1F [Example 217, N-(2-(4-(2-(3,6-Dihydro-2H-pyran-4-yl)-5-ethyl-4-(2-((2-fluoro-4-(trifluoromethyl)phenyl)amino)-2-oxoethyl)-7-oxo-4,7-dihydro-[1,2,4]triazolo[1,5-a]pyrimidin-6-yl)piperazin-1-yl)-2-oxoethyl)oxazole-2-carboxamide] | < 100 nM | < 100 nM |
| CCc1c(N2CCN(C(=O)CNC(=O)c3cc(C)on3)CC2)c(=O)n2nc(C3=CCOCC3)nc2n1CC(=O)Nc1ccc(C(F)(F)F)cc1F [Example 218, N-(2-(4-(2-(3,6-Dihydro-2H-pyran-4-yl)-5-ethyl-4-(2-((2-fluoro-4-(trifluoromethyl)phenyl)amino)-2-oxoethyl)-7-oxo-4,7-dihydro-[1,2,4]triazolo[1,5-a]pyrimidin-6-yl)piperazin-1-yl)-2-oxoethyl)-5-methylisoxazole-3-carboxamide] | < 100 nM | < 100 nM |
